Measurements published in patent US9981956B2, “Small molecule inhibitors of fibrosis” (THE CALIFORNIA INSTITUTE FOR BIOMEDICAL RESEARCH, priority 2013, dated 2018).

Test system: fibroblast to myofibroblast transdifferentiation (primary human lung fibroblasts and primary rodent HSCs)
Experiment: High content imaging and western based assay of fibroblast to myofibroblast transdifferentiation (α-SMA)
Format: cell-based
Conditions: graded, TGF-β induced fibroblast to myofibroblast transdifferentiation
Text: A high content imaging assay, based on α-SMA staining and cell morphological changes associated with fibroblast to myofibroblast transdifferentiation, was established using primary human lung fibroblasts and primary rodent HSCs. Conditions, involving serum starvation and subsequent TGF-β treatment, were identified that facilitate robust in vitro transdifferentiation in a miniaturized (384 well plate) format that is amenable to high throughput small molecule screening. A selective ALK-5 TGF-β1 receptor inhibitor (SB-431542) was used as a positive control. […] This assay was used to identify a hit compound (itraconazole) and was used to evaluate focused panels of itraconazole analogues generated from medicinal chemistry efforts.
The activity of Itraconazole and its analogues was confirmed by analyzing changes in gene expression of multiple genes associated with fibroblast to myofibroblast transdifferentiation using biochemical methods (i.e., Western blot and RT-PCR). These 4-day assays were used to evaluate sets of 6 compounds at a time in 4-point dose response fashion.
After 24 hour incubation, cells were treated with the indicated doses of itraconazole for 48 hours in the presence of 10 ng/mL of TGF-β1 in hepatic stellate medium. Following fixation and staining with an anti smooth muscle actin antibody, cell morphology was analyzed with a Cellomics cell insight imaging reader (FIG. 1 for representative images). Cells were analyzed for mean cellular area of a-SMA staining (FIG. 5a) or mean fluorescence intensity of SMA staining (FIG. 5b).
After 24 incubation, medium was changed to assay medium containing TGF-β1 (10 ng/mL) and simultaneously treated with itraconazole (10 μM), SB431542 (10 μM) or vehicle control (FIG. 6).

SMILES	EC50 [µM]
CC(C)n1ncn(-c2ccc(N3CCN(c4ccc(OC[C@@H]5CO[C@@](Cn6cncn6)(c6ccc(F)cc6F)O5)cc4)CC3)cc2)c1=O [Compound 13]	5 to 30
CCC(C)n1ncn(-c2ccc(N3CCN(c4ccc(OC[C@@H]5CO[C@@](Cn6cnc7ccccc76)(c6ccc(Cl)cc6Cl)O5)cc4)CC3)cc2)c1=O (stereo partly shown) [Compound 20]	0.5 to 5
CCC(C)n1ncn(-c2ccc(N3CCN(c4ccc(OC[C@@H]5CO[C@](Cn6nccn6)(c6ccc(Cl)cc6Cl)O5)cc4)CC3)cc2)c1=O (mixture of isomers) [Compound 18]	5 to 30
CCC(C)n1ncn(-c2ccc(N3CCN(c4ccc(OC[C@@H]5CO[C@@](Cn6nccn6)(c6cccc(Cl)c6)O5)cc4)CC3)cc2)c1=O (stereo partly shown) [Compound 33]	0.5 to 5
CCC(C)n1ncn(-c2ccc(N3CCN(c4ccc(OC[C@@H]5CO[C@](Cn6nc7ccccc7n6)(c6ccc(Cl)cc6Cl)O5)cc4)CC3)cc2)c1=O (mixture of isomers) [Compound 17]	5 to 30
CCC(C)n1ncn(-c2ccc(N3CCN(c4ccc(OC[C@@H]5CO[C@@](Cn6nccn6)(C6CCNCC6)O5)cc4)CC3)cc2)c1=O (stereo partly shown) [Compound 93]	5 to 30
CCC(C)n1ncn(-c2ccc(N3CCN(c4ccc(OC[C@@H]5CO[C@@](Cn6nccn6)(c6ccccc6C(F)(F)F)O5)cc4)CC3)cc2)c1=O (stereo partly shown) [Compound 43]	5 to 30
CCc1ccc([C@]2(Cn3nccn3)OC[C@@H](COc3ccc(N4CCN(c5ccc(-n6cnn(C(C)CC)c6=O)cc5)CC4)cc3)O2)cc1 (stereo partly shown) [Compound 34]	0.5 to 5
CCC(C)n1ncn(-c2ccc(N3CCN(c4ccc(OC[C@@H]5CO[C@@](Cn6nccn6)(c6cc(Cl)cc(Cl)c6)O5)cc4)CC3)cc2)c1=O (stereo partly shown) [Compound 31]	0.5 to 5
CCC(C)n1ncn(-c2ccc(N3CCN(c4ccc(OC[C@@H]5CO[C@@](Cn6nccn6)(c6ccc(Cl)cc6Cl)O5)cc4)CC3)cn2)c1=O (stereo partly shown) [Compound 25]	5 to 30
CCC(C)n1cnn(-c2ccc(N3CCN(c4ccc(OC[C@@H]5CO[C@@](Cn6nccn6)(c6ccc(F)cc6F)O5)cc4)CC3)cc2)c1=O (stereo partly shown) [Compound 3]	5 to 30
CCC(C)n1ncn(-c2ccc(N3CCN(c4ccc(OC[C@@H]5CO[C@@](Cn6nccn6)(c6ccc(C#N)cc6)O5)cc4)CC3)cc2)c1=O (stereo partly shown) [Compound 37]	0.5 to 5
CCc1cc(N2CCN(c3ccc(-n4cnn(C(C)CC)c4=O)cc3)CC2)ccc1OC[C@@H]1CO[C@@](Cn2nccn2)(c2ccc(Cl)cc2Cl)O1 (stereo partly shown) [Compound 80]	5 to 30
CCC(C)n1ncn(-c2ccc(N3CCN(c4ccc(OC[C@@H]5CO[C@@](Cn6nccn6)(c6ccc(Cl)cc6Cl)O5)cc4OC)CC3)cc2)c1=O (stereo partly shown) [Compound 51]	0.5 to 5
CCC(C)n1ncn(-c2ccc(N3CCN(c4ccc(OC[C@@H]5CO[C@@](Cn6nccn6)(c6ccc(-c7ccccc7)cc6)O5)cc4)CC3)cc2)c1=O (stereo partly shown) [Compound 72]	5 to 30
CCC(C)n1ncn(-c2ccc(N3CCN(c4ccc(OC[C@@H]5CO[C@@](Cn6cnc(C(F)(F)F)n6)(c6ccc(F)cc6F)O5)cc4)CC3)cc2)c1=O (stereo partly shown) [Compound 10]	5 to 30
CCC(C)n1cnn(-c2ccc(N3CCN(c4ccc(OC[C@@H]5CO[C@@](Cn6nc7ccccc7n6)(c6ccc(Cl)cc6Cl)O5)cc4)CC3)cc2)c1=O (stereo partly shown) [Compound 16]	5 to 30
CCC(C)n1ncn(-c2ccc(N3CCN(c4ccc(OC[C@@H]5CO[C@@](Cn6nccn6)(C6CCC6)O5)cc4)CC3)cc2)c1=O (stereo partly shown) [Compound 88]	0.5 to 5
CCC(C)n1ncn(-c2ccc(N3CCN(c4ccc(OC[C@@H]5CO[C@@](Cn6nccn6)(c6cccc7ccccc67)O5)cc4)CC3)cc2)c1=O (stereo partly shown) [Compound 63]	5 to 30
CCC(C)n1ncn(-c2ccc(N3CCN(c4ccc(OC[C@@H]5CO[C@@](Cn6nccn6)(c6ccc(Br)cc6)O5)cc4)CC3)cc2)c1=O (stereo partly shown) [Compound 35]	0.5 to 5
CCC(C)n1ncn(-c2ccc(N3CCN(c4ccc(OC[C@@H]5CO[C@@](Cn6nccn6)(c6ncccn6)O5)cc4)CC3)cc2)c1=O (stereo partly shown) [Compound 56]	5 to 30
CC[C@@H]([C@H](C)O)n1ncn(-c2ccc(N3CCN(c4ccc(OC[C@@H]5CO[C@@](Cn6cncn6)(c6ccc(F)cc6F)C5)cc4)CC3)cc2)c1=O (racemic) [POS, reference compound]	5 to 30
CCC(C)n1ncn(-c2ccc(N3CCN(c4ccc(OC[C@@H]5CO[C@@](Cn6nccn6)(C6CCCCC6)O5)cc4)CC3)cc2)c1=O (stereo partly shown) [Compound 58]	5 to 30
CC(C)Cn1ncn(-c2ccc(N3CCN(c4ccc(OC[C@@H]5CO[C@@](Cn6cncn6)(c6ccc(F)cc6F)O5)cc4)CC3)cc2)c1=O [Compound 14]	5 to 30
CCC(C)n1ncn(-c2ccc(N3CCN(c4ccc(OC[C@@H]5CO[C@@](Cn6nccn6)(c6ccc(OC)cc6)O5)cc4)CC3)cc2)c1=O (stereo partly shown) [Compound 39]	0.5 to 5

SMILES	EC50 [µM]
CCC(C)n1ncn(-c2ccc(N3CCN(c4ccc(OC[C@@H]5CO[C@@](Cn6nccn6)(c6ccccc6OC)O5)cc4)CC3)cc2)c1=O (stereo partly shown) [Compound 45]	5 to 30
CCC(C)n1ncn(-c2ccc(N3CCN(c4ccc(OC[C@@H]5CO[C@@](Cn6cnc(Br)n6)(c6ccc(F)cc6F)O5)cc4)CC3)cc2)c1=O (stereo partly shown) [Compound 9]	5 to 30
CCC(C)n1ncn(-c2ccc(N3CCN(c4ccc(OC[C@@H]5CO[C@@](Cn6nccn6)(c6ccc(C)cc6)O5)cc4)CC3)cc2)c1=O (stereo partly shown) [Compound 40]	0.5 to 5
CCC(C)n1ncn(-c2ccc(N3CCN(c4ccc(OC[C@@H]5CO[C@@](Cn6nccn6)(c6ccncc6)O5)cc4)CC3)cc2)c1=O (stereo partly shown) [Compound 83]	5 to 30
CCC(C)n1ncn(-c2ccc(N3CCN(c4ccc(OC[C@@H]5CO[C@@](Cn6nccn6)(C6CCOCC6)O5)cc4)CC3)cc2)c1=O (stereo partly shown) [Compound 92]	5 to 30
CCC(C)n1ncn(-c2ccc(N3CCN(c4ccc(OC[C@@H]5CO[C@@](Cn6nccn6)(c6ccc(Cl)cc6Cl)O5)c(Cl)c4)CC3)cc2)c1=O (stereo partly shown) [Compound 48]	0.5 to 5
CCC(C)n1ncn(-c2ccc(N3CCN(c4ccc(OC[C@@H]5CO[C@@](Cn6nccn6)(c6nccs6)O5)cc4)CC3)cc2)c1=O (stereo partly shown) [Compound 78]	5 to 30
CCC(C)n1cnn(-c2ccc(N3CCN(c4ccc(OC[C@@H]5CO[C@@](Cn6nnc7ccccc76)(c6ccc(F)cc6F)O5)cc4)CC3)cc2)c1=O (stereo partly shown) [Compound 8]	0.5 to 5
CC(O)C(C)n1ncn(-c2ccc(N3CCN(c4ccc(OC[C@@H]5CO[C@@](Cc6ccnnc6)(c6ccc(Cl)cc6Cl)O5)cc4)CC3)cc2)c1=O (stereo partly shown) [Compound 29]	< 0.5
CCC(C)n1ncn(-c2ccc(N3CCN(c4ccc(OC[C@@H]5CO[C@@](Cn6nccn6)(C(C)C)O5)cc4)CC3)cc2)c1=O (stereo partly shown) [Compound 90]	5 to 30
CCC(C)n1ncn(-c2ccc(N3CCN(c4ccc(OC[C@@H]5CO[C@@](Cn6nccn6)(c6cccnc6)O5)cc4)CC3)cc2)c1=O (stereo partly shown) [Compound 82]	5 to 30
CCC(C)n1ncn(-c2ccc(N3CCN(c4ccc(OC[C@@H]5CO[C@@](Cn6nccn6)(c6ccc(S(C)(=O)=O)cc6)O5)cc4)CC3)cc2)c1=O (stereo partly shown) [Compound 44]	5 to 30
CCC(C)n1ncn(-c2ccc(N3CCN(c4ccc(OC[C@@H]5CO[C@@](Cn6nccn6)(c6ccc(Cl)cc6Cl)O5)c(C)c4)CC3)cc2)c1=O (stereo partly shown) [Compound 46]	5 to 30
CCC(C)n1ncn(-c2ccc(N3CCN(c4ccc(OC[C@@H]5CO[C@@](Cn6nccn6)(c6ccc(Cl)cc6Cl)O5)cc4Cl)CC3)cc2)c1=O (stereo partly shown) [Compound 53]	0.5 to 5
CCC(C)n1ncn(-c2ccc(N3CCN(c4ccc(OC[C@@H]5CO[C@@](Cn6nccn6)(c6ccc(Cl)cc6Cl)O5)cc4C)CC3)cc2)c1=O (stereo partly shown) [Compound 50]	0.5 to 5
CCC(C)n1ncn(-c2ccc(N3CCN(c4ccc(OC[C@H]5CO[C@@](Cn6cncn6)(c6ccc(F)cc6F)O5)cc4)CC3)cc2)c1=O (mixture of isomers) [Compound 7]	5 to 30
CCc1cc(OC[C@@H]2CO[C@@](Cn3nccn3)(c3ccc(Cl)cc3Cl)O2)ccc1N1CCN(c2ccc(-n3cnn(C(C)CC)c3=O)cc2)CC1 (stereo partly shown) [Compound 81]	5 to 30
CCC(C)n1ncn(-c2ccc(N3CCN(c4ccc(OC[C@@H]5CO[C@@](Cn6nccn6)(c6ccc(Cl)cc6Cl)O5)c(OC)c4)CC3)cc2)c1=O (stereo partly shown) [Compound 47]	5 to 30
CC(O)C(C)n1ncn(-c2ccc(N3CCN(c4ccc(OC[C@@H]5CO[C@@](Cn6nccn6)(c6ccc(Cl)cc6Cl)O5)cc4)CC3)cc2)c1=O (stereo partly shown) [Compound 28]	0.5 to 5
CCC(C)n1ncn(-c2ccc(N3CCN(c4ccc(OC[C@@H]5CO[C@@](Cn6nccn6)(c6ccc(Cl)cc6Cl)O5)cc4C#N)CC3)cc2)c1=O (stereo partly shown) [Compound 52]	0.5 to 5
CCC(C)n1ncn(-c2ccc(N3CCN(c4ccc(OC[C@@H]5CO[C@@](Cn6nccn6)(c6cnccn6)O5)cc4)CC3)cc2)c1=O (stereo partly shown) [Compound 57]	5 to 30
CCC(C)n1ncn(-c2ccc(N3CCN(c4ccc(OC[C@@H]5CO[C@@](Cn6nccn6)(c6ccc(C(F)(F)F)cc6)O5)cc4)CC3)cc2)c1=O (stereo partly shown) [Compound 38]	0.5 to 5
CCC(C)n1cnn(-c2ccc(N3CCN(c4ccc(OC[C@@H]5CO[C@@](Cn6ccc(C)n6)(c6ccc(F)cc6F)O5)cc4)CC3)cc2)c1=O (stereo partly shown) [Compound 4]	5 to 30
CCC(C)n1cnn(-c2ccc(N3CCN(c4ccc(OC[C@@H]5CO[C@@](Cn6nc7ccccc7n6)(c6ccc(F)cc6F)O5)cc4)CC3)cc2)c1=O (stereo partly shown) [Compound 12]	5 to 30
